# Values quoted from earlier work as cited in US20260256792A1, “TREATMENT OF CHRONIC SPONTANEOUS URTICARIA BY ADMINISTERING (R)-2-[3-[4-AMINO-3-(2-FLUORO-4-PHENOXY-PHENYL)PYRAZOLO[3,4-D]PYRIMIDIN-1-YL]PIPERIDINE-1-CARBONYL]-4-METHYL-4-[4-(OXETAN-3-YL)PIPERAZIN-1-YL]PENT-2-ENENITRILE” (priority 2023, published 2026).
# Settings: humans, oral administration; cited from earlier work
smiles,measurement,value
"CC(C)(C=C(C#N)C(=O)N1CCC[C@@H](n2nc(-c3ccc(Oc4ccccc4)cc3F)c3c(N)ncnc32)C1)N1CCN(C2COC2)CC1 [rilzabrutinib, (R)-2-[3-[4-amino-3-(2-fluoro-4-phenoxy-phenyl)pyrazolo[3,4-d]pyrimidin-1-yl]piperidine-1-carbonyl]-4-methyl-4-[4-(oxetan-3-yl)piperazin-1-yl]pent-2-enenitrile]",absorption,rapidly absorbed
same,half-life,3 to 4 h
